# System: Aβ accumulation in cultured nerve cells (CHP212 cells)
# Assay: Measurement of fluctuation in the amount of Aβ accumulation in cultured nerve cells
# Format: cell-based
# Conditions: human neuroblastoma CHP212 cells; Aβ in the medium by ELISA (Amyloid β1-42 kit) 48 hours after addition of test substance; 10^−11 M to 10^−6 M; versus DMSO control (100%)
# Excerpt: FIG. 1 is a diagram showing results of measuring fluctuation caused by a test substance of the formula (II) in the amount of Aβ accumulation in cultured nerve cells (CHP212 cells).
# In the diagram, each column represents, starting from the left, a result of measurement obtained in a control well to which only a solvent (DMSO) has been added, in a well to which the test substance has been added so that its final concentration can be 10^−11 M (10^−11 M), in a well to which the test substance has been added so that its final concentration can be 10^−10 M (10^−10 M), in a well to which the test substance A has been added so that its final concentration can be 10^−9 M (10^−9 M), in a well to which the test substance has been added so that its final concentration can be 10^−8 M (10^−8 M), in a well to which the test substance has been added so that its final concentration can be 10^−7 M (10^−7 M), and in a well to which the test substance has been added so that its final concentration can be 10^−6 M (10^−6 M). The results are shown in % by setting a result obtained in a control well to which only a solvent (DMSO) has been added as 100%. […]
compound,measurement,value
CCCN(CC1CC1)c1ccc(C#N)c(C(F)(F)F)c1 [formula (II)],amount of Aβ accumulation,markedly decreased
